The text below walks through data of PMC12615753, “Glutathione as a taste modulator: molecular mechanisms of interaction with umami and sweet taste receptors” (Food Chemistry: Molecular Sciences, 2025).

Molecules are shown by their SMILES. Some results are limits rather than exact numbers.

This test addresses T1, hTAS1R1 S306A/rTAS1R3 (Homo sapiens, UniProt Q7RTX1, S306A).
T1 construct: expressed in transfected cells; host or cells: HEK293T/17 (ATCC CRL-11268)
T1 sequence (Q7RTX1 21-841 S306A): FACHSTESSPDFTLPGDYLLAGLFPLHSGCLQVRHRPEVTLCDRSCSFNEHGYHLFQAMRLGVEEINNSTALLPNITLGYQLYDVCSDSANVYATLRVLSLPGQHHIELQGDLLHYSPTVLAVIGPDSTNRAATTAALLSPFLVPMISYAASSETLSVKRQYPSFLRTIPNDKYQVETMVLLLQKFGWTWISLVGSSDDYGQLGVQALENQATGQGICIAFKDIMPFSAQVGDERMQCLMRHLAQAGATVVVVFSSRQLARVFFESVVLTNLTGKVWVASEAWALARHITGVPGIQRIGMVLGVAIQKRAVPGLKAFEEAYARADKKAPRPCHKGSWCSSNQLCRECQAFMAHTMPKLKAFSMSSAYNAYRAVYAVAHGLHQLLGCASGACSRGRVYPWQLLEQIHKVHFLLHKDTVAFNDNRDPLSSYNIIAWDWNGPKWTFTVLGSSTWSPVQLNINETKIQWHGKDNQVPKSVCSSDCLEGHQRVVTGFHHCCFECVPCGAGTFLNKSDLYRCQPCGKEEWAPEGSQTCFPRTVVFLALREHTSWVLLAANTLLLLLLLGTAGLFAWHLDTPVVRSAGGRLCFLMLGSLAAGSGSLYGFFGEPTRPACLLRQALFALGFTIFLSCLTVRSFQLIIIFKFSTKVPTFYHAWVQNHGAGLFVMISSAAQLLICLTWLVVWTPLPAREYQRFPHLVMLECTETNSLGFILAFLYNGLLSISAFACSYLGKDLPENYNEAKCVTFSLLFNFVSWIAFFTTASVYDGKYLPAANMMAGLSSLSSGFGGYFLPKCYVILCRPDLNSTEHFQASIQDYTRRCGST
T1 sequence (Q923K1 21-858 partner): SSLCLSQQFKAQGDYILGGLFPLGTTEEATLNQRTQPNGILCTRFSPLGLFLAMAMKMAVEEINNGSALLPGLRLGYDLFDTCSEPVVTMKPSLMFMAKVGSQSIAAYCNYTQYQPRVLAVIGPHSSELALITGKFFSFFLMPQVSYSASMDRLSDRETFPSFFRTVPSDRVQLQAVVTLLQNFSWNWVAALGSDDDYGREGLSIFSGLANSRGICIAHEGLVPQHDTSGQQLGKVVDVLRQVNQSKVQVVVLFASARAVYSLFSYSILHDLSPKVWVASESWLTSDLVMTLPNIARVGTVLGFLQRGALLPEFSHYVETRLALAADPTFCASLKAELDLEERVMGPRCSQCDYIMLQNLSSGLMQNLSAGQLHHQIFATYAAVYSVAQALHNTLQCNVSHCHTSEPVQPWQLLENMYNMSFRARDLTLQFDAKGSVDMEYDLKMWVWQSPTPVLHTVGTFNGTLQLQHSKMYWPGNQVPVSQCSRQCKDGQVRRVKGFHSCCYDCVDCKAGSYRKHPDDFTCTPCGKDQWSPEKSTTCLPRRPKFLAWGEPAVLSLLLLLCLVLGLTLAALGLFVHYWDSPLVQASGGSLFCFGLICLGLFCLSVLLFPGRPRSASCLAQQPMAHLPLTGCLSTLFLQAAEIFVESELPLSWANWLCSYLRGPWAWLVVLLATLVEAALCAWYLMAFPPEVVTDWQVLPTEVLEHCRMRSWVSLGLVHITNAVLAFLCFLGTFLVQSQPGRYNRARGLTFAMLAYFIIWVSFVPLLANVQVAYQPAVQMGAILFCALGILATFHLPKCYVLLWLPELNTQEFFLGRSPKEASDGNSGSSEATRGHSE
In words: Calcium assay, hTAS1R1 mutant co-expressed with rTAS1R3. It is filed as cell-based, rat. The text has this:
Chimeric Gα proteins, such as Gα16Gust44, Gα16Gi3 or Gα15i2, are widely used in the functional expression of TAS1R receptors ([Backes et al., 2015]; [Suess et al., 2015]; [Toda et al., 2021], [Toda et al., 2013], [Toda et al., 2018]; [Zhang et al., 2008]). Chimeric Gα15i2 (([Toda et al., 2013]), Supplementary data) was generated by replacing the last five residues of the C-terminal tail of rat Gα15i2 (EINLL) (UniProt number G3V6N8; https://www.uniprot.org/uniprot/) with the counterpart sequence from human GNAI2 (DCGLF) (UniProt number P04899-1) and cloning into the pcDNA3.1/Hygro vector (Invitrogen, Thermo Fisher Scientific, Illkirch, France) between the HindIII and NotI restriction sites, resulting in the plasmid pcDNA3.1-Gα15i2. Chimeric Gα16Gust44 construct have already been reported ([Raliou et al., 2011]). Briefly, Gα16Gust44 was generated by replacing the C-terminal of Gα16 with the C-terminal 44 residues of gustducin. As previously described, hTAS1R1 was amplified from human fungiform papillae cDNA and cloned and inserted into pcDNA3 (Invitrogen), generating pcDNA3-TAS1R1-WT (wild-type) ([Raliou et al., 2011]). […] The cDNA coding region of rTAS1R3 was synthesized with optimized-codon usage for human expression (Genewiz) and was cloned and inserted into the mammalian pcDNA4/myc-HisA (Invitrogen) expression vector between the EcoRI and NotI restriction sites, resulting in the plasmid pcDNA4-rTAS1R3. […] The sequence integrity of all the plasmid constructs was verified via automated DNA sequencing (Genewiz).
The hTAS1R1 mutants were co-expressed with the rTAS1R3 subunit in HEK293 cells. […] As a control, the functionality of the mutated receptors was checked after stimulation with S807 (Fig. S8), which interacts with TAS1R1-TMD ([Zhang et al., 2008]).

On to `N[C@@H](CCC(=O)N[C@@H](CS)C(=O)NCC(=O)O)C(=O)O` [GSH, γ-L-glutamyl-L-cysteinyl-glycine], for which the EC50 – broadly, the midpoint of the concentration-response curve – was above 30 mM. For the same compound, under “S306A”, the “effect of the added compound (1 mM) on the response to L-Glu” value is “did not affect” and the “response to the agonist alone, vs WT” value is on record as “fully abolished”.

Regarding `CCCC(CCC)NC(=O)c1ccc2c(c1)OCO2` [S807, N-(heptan-4-yl)benzo[d][1,3]dioxole-5-carboxamide, reference compound], the “response to the agonist alone, vs WT” value (S306A) is “strongly affected”.
